Several values for one entry are separate records, joined by “and”; a condition that tells them apart may be missing. Identical values can stand only once.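 Five concentrations, 48 hours, 96-well plates. The concentration for 50% growth inhibition is given as GI50. At the TGI there is no net growth.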

Some test systems named below: PC-3 prostate; T-47D breast; NCI/ADR-RES ovarian; MCF7 breast; MDA-MB-435; HS 578T breast.
Common to all, as to assay: DTP human tumour cell line panel, 48 h

Broadly, the GI50 is the concentration that inhibits growth by half. For orientation: TGI means the concentration at which net growth stops. For the compound `Oc1ccc(-c2nc(-c3ccc(F)cc3)c(-c3ccncc3)[nH]2)cc1`, the GI50 is 14.1 µM with PC-3 prostate; 8.75 µM with T-47D breast; 35.6 µM in the test on NCI/ADR-RES ovarian; 19.4 µM with MCF7 breast; 6.8 µM in the test on MDA-MB-435. Further, the TGI is over 100 µM in the test on PC-3 prostate; 63 µM in the test on T-47D breast; over 100 µM in the test with NCI/ADR-RES ovarian; over 100 µM in the test with MCF7 breast; 35.1 µM in the test on MDA-MB-435.
Consider `COc1cc2c(cc1OCCCN1CCN(CCCOc3cc4c(cc3OC)C(=O)C3CCC[C@H]3C=N4)CC1)N=C[C@@H]1CCCC1C2=O` (stereo not given in full), for which the GI50 was 2.99 µM in the test with PC-3 prostate; 15 µM in the test with T-47D breast; over 100 µM in the test on NCI/ADR-RES ovarian; 1.44 µM in the test with MCF7 breast; 1.42 µM in the test on HS 578T breast; 5.89 µM in the test with MDA-MB-435. The concentration for total growth inhibition (TGI) was over 77.1 µM in the test with PC-3 prostate; over 100 µM with T-47D breast; over 100 µM with NCI/ADR-RES ovarian; over 100 µM in the test with MCF7 breast; 15.1 µM in the test with HS 578T breast; 30.3 µM in the test with MDA-MB-435.
Turning to `COC12c3ccccc3-c3ccccc3C1[C@@H](C(=O)O)[C@H]2C(=O)O` (stereo not given in full), the TGI in the test on PC-3 prostate, in the test on T-47D breast, with NCI/ADR-RES ovarian, in the test with MCF7 breast, in the test with HS 578T breast and with MDA-MB-435 was over 10 µM throughout.
As to `Nc1nccc(C#Cc2cncnc2Nc2ccc(OCc3cccc(F)c3)c(Cl)c2)n1`, the GI50 in the test on PC-3 prostate was 4.5 µM; in the test on T-47D breast, 3.1 µM; in the test on NCI/ADR-RES ovarian, 6.6 µM; with MCF7 breast, 3.99 µM; in the test with HS 578T breast, 6.32 µM; with MDA-MB-435, 5.36 µM. The TGI in the test on PC-3 prostate is 9.63 µM; with T-47D breast it was 8.03 µM; with NCI/ADR-RES ovarian it was over 25 µM; in the test with MCF7 breast it was 8.25 µM; in the test with HS 578T breast, 20.5 µM; in the test on MDA-MB-435 it was over 23.8 µM.
As for `Cn1cc(-c2nonc2-c2cn(C)c3ccc(Br)cc23)c2ccccc21`, the values for the GI50 in the test with PC-3 prostate, in the test on NCI/ADR-RES ovarian and in the test on MCF7 breast were 4.06 µM, 3.19 µM and 2.83 µM, respectively. Also, the TGI in the test with PC-3 prostate, with NCI/ADR-RES ovarian and in the test on MCF7 breast was over 100 µM each time.
With `O=C1c2cccnc2-c2nc(-c3ccccc3)cc3c2c1nc1ccccc13`, the GI50 is 3.42 µM in the test on PC-3 prostate; 5.35 µM in the test with T-47D breast; 11.9 µM in the test with NCI/ADR-RES ovarian; 1.09 µM in the test with MCF7 breast; 16.6 µM in the test on HS 578T breast; 1.53 µM in the test with MDA-MB-435. In addition, the total growth inhibition concentration (TGI) with PC-3 prostate is 73.2 µM; with T-47D breast it was 44.3 µM; with NCI/ADR-RES ovarian, 32.7 µM; in the test on MCF7 breast, 4.11 µM; in the test with HS 578T breast, 42.9 µM; in the test on MDA-MB-435, 2.96 µM.
`Cn1cccc1C1CC(=O)N(CCC[Se]C#N)C1=O` (stereo not given): the GI50 in the test on PC-3 prostate was 2.19 µM; in the test on T-47D breast it was 2.78 µM; in the test on NCI/ADR-RES ovarian, 2.69 µM; in the test with MCF7 breast it was 2.85 µM; with HS 578T breast, 2.44 µM; in the test on MDA-MB-435, 1.78 µM. Also, the TGI in the test with PC-3 prostate was 5.63 µM; in the test on T-47D breast, 12.8 µM; in the test on NCI/ADR-RES ovarian, 7.85 µM; in the test with MCF7 breast it was 14.6 µM; in the test on HS 578T breast it was 7.33 µM; in the test with MDA-MB-435 it was 3.48 µM.
For the compound `CC1(C)CCC(CN2CCN(c3ccc(C(=O)NS(=O)(=O)c4ccc(NCC5CCOCC5)c([N+](=O)[O-])c4)c(Oc4cnc5[nH]ccc5c4)c3)CC2)=C(c2ccc(Cl)cc2)C1`, the GI50 with PC-3 prostate is 1.93 µM; with T-47D breast, 3.25 µM; in the test on NCI/ADR-RES ovarian, 5 µM; with MCF7 breast, 3.16 µM; in the test on HS 578T breast it was 2.94 µM; in the test on MDA-MB-435, 2.07 µM. Besides, the TGI with PC-3 prostate stood at 5.54 µM; with T-47D breast it was 18.9 µM; in the test on NCI/ADR-RES ovarian it was 27.3 µM; in the test with MCF7 breast, 14.5 µM; with HS 578T breast, 12.2 µM; in the test on MDA-MB-435, 5.38 µM.
As for `CC1OC(OC2C(OC3CCC4(C)C(CCC5(C)C4CC=C4C6CC(C)(C)CCC6(CO)C(O)CC45C)C3(C)C)OC(C(=O)O)C(OC3OC(COC4OC(CO)C(O)C(O)C4O)C(O)C(O)C3O)C2O)C(O)C(O)C1O` (stereo not given), the GI50 is 1.56 µM with PC-3 prostate; 12.3 µM with T-47D breast; 11.5 µM with NCI/ADR-RES ovarian; 11.4 µM with MCF7 breast; 13.1 µM in the test on HS 578T breast; 4.34 µM in the test with MDA-MB-435. Further, the concentration for total growth inhibition (TGI) in the test with PC-3 prostate was 3.92 µM; with T-47D breast, 27.8 µM; in the test with NCI/ADR-RES ovarian, 23.6 µM; in the test on MCF7 breast, 24.2 µM; in the test with HS 578T breast it was 34.6 µM; with MDA-MB-435, 14.7 µM.
As for `O=[N+]([O-])c1ccc([I+]c2ccccc2)cc1`, the GI50 in the test on PC-3 prostate was 2.16 µM; in the test on T-47D breast it was 1.3 µM; with NCI/ADR-RES ovarian, 2.25 µM; with MCF7 breast, 2.24 µM; in the test on HS 578T breast it was 2 µM; in the test on MDA-MB-435 it was 1.85 µM. The TGI with PC-3 prostate is 11 µM and 5.21 µM; in the test with T-47D breast, 26 µM and 5.04 µM; in the test with NCI/ADR-RES ovarian, > 29.1 µM and 6.92 µM; in the test on MCF7 breast it was 10.3 µM and 8.25 µM; with HS 578T breast, 13.5 µM and 5.85 µM; with MDA-MB-435 it was 23.3 µM and 4.33 µM.
With `COc1ccc(C2=NN(c3ccc(S(N)(=O)=O)cc3)C(c3ccc(Cl)cc3)C2)c(O)c1` (stereo not given), the GI50 was 2.78 µM with PC-3 prostate; 2.4 µM in the test on T-47D breast; 3.98 µM with NCI/ADR-RES ovarian; 2.08 µM in the test with MCF7 breast; 3.93 µM with HS 578T breast; 3.26 µM in the test with MDA-MB-435. Besides, the TGI in the test on PC-3 prostate was 14.6 µM; in the test with T-47D breast it was 7.81 µM; in the test on NCI/ADR-RES ovarian, 21.1 µM; in the test on MCF7 breast, 8.66 µM; in the test with HS 578T breast, 19.5 µM; with MDA-MB-435 it was 13.8 µM.
Consider `C/C=C(\C)C(=O)O[C@@H]1C=CC(=O)O[C@H]1COC(=O)[C@H](C)O`, for which the GI50 with PC-3 prostate was 10.5 µM; in the test with T-47D breast it was 4.64 µM; with NCI/ADR-RES ovarian, 14.6 µM; with MCF7 breast it was 4.53 µM; in the test with HS 578T breast, 5.61 µM; with MDA-MB-435, 15.2 µM. Also, the TGI with PC-3 prostate turned out to be 31.6 µM; in the test on T-47D breast, 25.6 µM; in the test with NCI/ADR-RES ovarian it was 56.8 µM; with MCF7 breast it was 18.3 µM; in the test with HS 578T breast it was 34.6 µM; in the test on MDA-MB-435, 71.6 µM.

These data come from PubChem BioAssay (NCI).
